# According to PubChem BioAssay AID1259340 (Broad Institute, 2017):
# Activity calls are given as the source filed them.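 Rule for the calls: active = AC50 no more than ten times the top concentration tested; inconclusive = flat fit with inhibition between 30% and 70%, or unusable fit; inactive = AC50 beyond ten times the top concentration.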
# Biological target: Caspase recruitment domain-containing protein 9 (Homo sapiens) + B-cell lymphoma/leukemia 10 (Homo sapiens) (UniProt Q9H257+O95999)
# Assay: disruptors of CARD9-BCL10 binding, dose response, selectivity assay for CARD9-TRIM62 disruptor project, cell lysate, HEK293FT lysates, Luminex bead ELISA (AID 1259340)
# Details: not given
# Chain of Caspase recruitment domain-containing protein 9 (Homo sapiens) + B-cell lymphoma/leukemia 10 (Homo sapiens) (O95999 whole entry, looked up, the tested form may be a part): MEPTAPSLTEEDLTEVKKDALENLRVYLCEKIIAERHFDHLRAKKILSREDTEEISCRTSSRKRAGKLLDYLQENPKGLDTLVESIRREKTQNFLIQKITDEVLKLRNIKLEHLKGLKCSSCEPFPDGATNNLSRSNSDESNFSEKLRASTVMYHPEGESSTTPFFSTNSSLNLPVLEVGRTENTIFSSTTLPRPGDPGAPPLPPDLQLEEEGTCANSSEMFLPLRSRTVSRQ
# Chain of Caspase recruitment domain-containing protein 9 (Homo sapiens) + B-cell lymphoma/leukemia 10 (Homo sapiens) (Q9H257 whole entry, looked up, the tested form may be a part): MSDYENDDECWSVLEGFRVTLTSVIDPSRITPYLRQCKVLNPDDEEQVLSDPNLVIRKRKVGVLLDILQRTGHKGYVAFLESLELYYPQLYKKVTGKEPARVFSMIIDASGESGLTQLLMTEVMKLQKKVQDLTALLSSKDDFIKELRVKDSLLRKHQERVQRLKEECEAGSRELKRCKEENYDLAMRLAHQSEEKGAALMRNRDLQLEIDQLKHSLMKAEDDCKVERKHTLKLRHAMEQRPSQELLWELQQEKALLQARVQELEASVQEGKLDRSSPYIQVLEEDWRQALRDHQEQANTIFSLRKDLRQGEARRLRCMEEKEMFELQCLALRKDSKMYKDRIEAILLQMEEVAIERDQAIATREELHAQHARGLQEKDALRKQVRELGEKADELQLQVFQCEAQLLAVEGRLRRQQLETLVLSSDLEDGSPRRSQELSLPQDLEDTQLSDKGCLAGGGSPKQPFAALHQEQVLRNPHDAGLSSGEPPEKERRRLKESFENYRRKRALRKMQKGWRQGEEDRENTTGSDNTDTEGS
row,Compound,AC50
1,CCc1ccc(Nc2nc(C(=O)NCc3ccc(N(C)C)cc3)nc3ccccc23)cc1,7.97 µM
2,O=C(Nc1nccs1)c1cc(-c2ccco2)nc2ccccc12,> 160 µM (inactive)
3,Cc1nc(C)c(C(=O)Nc2ncc([N+](=O)[O-])s2)o1,66 µM
4,COc1ccc2nc(-c3ccco3)c(-c3ccco3)nc2c1,39.2 µM
5,Cc1ccc(-c2nnc(-c3nc(Nc4nc5ccccc5s4)c4ccccc4n3)o2)cc1,64 µM
6,CCOc1ccccc1NC(=O)N1CCCC(c2nccn2CCOC)C1 (stereo not given),> 160 µM (inactive)
7,COc1cccc(NC(=O)CN(C)C(=O)c2cc3c(s2)CCC3)c1,> 160 µM (inactive)
8,C[C@H](CO)N1C[C@H](C)[C@@H](CN(C)CC2CCCCC2)OCCCC[C@H](C)Oc2ccc(NS(=O)(=O)c3ccc(F)cc3)cc2C1=O,> 160 µM (inactive)
9,O=C1CC2(CCN(C(=O)Nc3ccccc3)CC2)CN1Cc1ccc(Cl)cc1,79.7 µM
10,O=C(Nc1nccs1)c1cc(-c2ccccn2)nc2c(Cl)cccc12,41.1 µM
11,C(=C\c1ccco1)/c1nc2ccccc2[nH]1,58.6 µM
12,Cc1cccc2nc(CSCc3ccco3)cn12,> 160 µM (inactive)
13,C=CC(=O)N1CCCC2(CCN(CCN3CCCC3)C2=O)C1 (stereo not given),22.7 µM
14,COc1ccc(-n2c(C)c3c(OC)cccc(=O)c3c2C)cc1,> 160 µM (inactive)
15,O=C(NCc1ccco1)c1c2c(nc3ccccc13)CCC2,> 160 µM (inactive)
16,O=C(NC1CC1)c1cc(-c2ccco2)nc2ccccc12,> 160 µM (inactive)
17,COc1ccc(-c2nnc(-c3nc(Nc4ccc(NC(C)=O)cc4)c4ccccc4n3)o2)cc1,64.5 µM
18,O=C1C=C(c2ccccc2)Nc2ccccc2N1,> 160 µM (inactive)
19,O=C1CS/C(=N\N=C\c2ccco2)N1c1ccccc1,> 160 µM (inactive)
20,O=C(NCC1CCCO1)c1cc(-c2ccco2)nc2ccccc12 (stereo not given),> 160 µM (inactive)
21,O=C(Nc1nc(-c2ccco2)c(-c2ccco2)s1)c1ccc(F)cc1F,> 160 µM (inactive)
22,NC(=O)c1ccc(CN2C(=O)C3(CCNCC3)Nc3ccccc32)cc1,> 160 µM (inactive)
23,O=C(COc1cccnc1[N+](=O)[O-])c1ccc(Cl)s1,40 µM
24,CC(=O)c1sc2nc(-c3ccco3)ccc2c1N,26.1 µM
25,O=C(Nc1nncs1)c1cc(-c2ccco2)nc2ccccc12,68.5 µM

# Same assay, conditions: at 80 µM (top of the series)
row,Compound,"activity change, negative = inhibition"
1,O=C(COC(=O)c1ccc(S(=O)(=O)NCc2ccco2)cc1)Nc1ccc(Cl)cn1,inactive
2,Cc1ccc(C(=O)Nc2ccc(N3CCC(C(N)=O)(N4CCCCC4)CC3)c(C(=O)O)c2)cc1,inactive
3,O=C(Cn1c(=O)cc(C(=O)N2CCc3ccccc3C2)c2ccccc21)NCc1ccc2c(c1)OCO2,inactive
4,Cc1ccc(-c2nn(-c3ccccc3)cc2CN(Cc2ccccc2)C(=O)CCC(=O)O)o1,inactive
5,NC(=O)C1(N2CCCCC2)CCN(c2ccc(NC(=O)c3cccc(Cl)c3)cc2C(=O)O)CC1,inactive
6,O=C(NCCc1ccco1)c1ccc(OCc2cn3ccccc3n2)cc1,inactive
7,CCc1nccn1CCC(=O)N1C[C@H](CO)C[C@H](CN2CCCC2)C1,inactive
8,Cc1ccc(N2C(=O)c3ccccc3C2C(=O)c2ccc(O)cc2O)cc1 (stereo not given),inactive
9,Cc1cccc(Nc2nc(C(=O)Nc3cc(F)ccc3F)nc3ccccc23)c1,inactive
10,CCN1CCOC(=O)C1CC(=O)Nc1cccc(C)c1 (stereo not given),inactive
11,CCCc1oc(C(=O)O)cc1CN,inactive
12,O=C(Nc1nc(-c2ccco2)c(-c2ccco2)s1)c1ccco1,inactive
13,O=S(=O)(Nc1nc2ccc(S(=O)(=O)N3CCCCC3)cc2s1)c1ccccc1,inactive
14,NC(=O)C1(N2CCCCC2)CCN(c2ncc(NC(=O)c3ccccc3)cc2C(=O)O)CC1,inactive
15,c1cn(CCc2noc(C3CCCC3)n2)c(-c2cc3n(n2)CCCNC3)n1,inactive
16,Cc1ccc(S(=O)(=O)Cc2ccc(C(=O)N3CCC4(CC3)OCCO4)o2)cc1,inactive
17,O=C(NCCCN1CCOCC1)c1cc(-c2ccco2)nc2ccccc12,inactive
18,Cc1ccc(N2NC(c3ccc(Br)cc3)=CCC2=O)cc1,inactive
19,O=C(CN1CCOC1=O)N1CCC2(CCC(=O)N(CCCn3ccnc3)C2)CC1,inactive
20,CCCN1CCCn2nc(CNC(=O)[C@@H](N)Cc3ccc(O)cc3)cc2C1,inactive
21,COCCC(=O)N1CCCC2(CCN(CCN3CCCC3)C2=O)C1 (stereo not given),inactive
22,O=C(NCCc1ccccc1)c1cc2cccnc2n(Cc2ccccc2)c1=O,inactive
23,O=C(O)COc1ccc(-n2cccc2)cc1,inactive

row,Compound,"activity change, negative = inhibition"
1,CC1(C)Cc2ccccc2-c2nc(-c3ccccc3)oc(=O)c21,inactive
2,C[C@H](CO)N1C[C@H](C)[C@@H](CN(C)CC2CCCCC2)OCCCC[C@H](C)Oc2ccc(NS(C)(=O)=O)cc2C1=O,inactive
3,CC1=CCC(C(=O)O)C(C(=O)NC2CCCCC2)C1 (stereo not given),inactive
4,CC(C(=O)N1CCCC1)N1CCN(c2ccccc2O)CC1 (stereo not given),inactive
5,Cc1ccc(C(=O)Nc2cnc(N3CCC(C(N)=O)(N4CCCCC4)CC3)c(C(=O)O)c2)cc1,inactive
6,O=C(Nc1nc(-c2nc3ccccc3s2)cs1)c1ccco1,inactive
7,CC1CCN(c2nc(-c3ccco3)c3c(c2C#N)CC(C)(C)OC3)CC1,inactive
8,O=C(Cc1ccc(S(=O)(=O)N2CCOCC2)s1)Nc1nc2c(s1)CCCC2,inactive
9,NC(=O)C1(N2CCCCC2)CCN(c2ncc(NC(=O)c3ccc(Cl)cc3)cc2C(=O)O)CC1,inactive
10,O=C(Nc1ccc(OCC(=O)N2CCOCC2)cc1)c1cncc(Br)c1,inactive
11,CCc1nc(OCc2ccco2)c2sc3nc4c(cc3c2n1)COC(C)(C)C4,inactive
12,O=S(=O)(Nc1nccs1)c1ccc(-n2cccc2)cc1,inactive
13,O=c1/c(=C/c2ccco2)sc2nc3ccccc3n12,inactive
14,COCC(=O)N1CCCC2(CCN(CCN3CCCC3)C2=O)C1 (stereo not given),inactive
15,O=S(=O)(c1ccccc1)N1CC2CN(Cc3ccc(O)cc3)C2C1 (stereo not given),inactive
16,COC[C@]1(O)CCN(C(=O)CCN(C)S(C)(=O)=O)CC1(C)C,inactive
17,CCn1ccnc1C1CCN(C(=O)CCn2c(C)nc3ccccc32)CC1,inactive
18,O=C(Nc1nnc(-c2ccco2)s1)c1ccccc1,inactive
19,CCCN1CCCn2nc(CNC(=O)[C@H]3CC[C@@H](N)C3)cc2C1,inactive
20,CC(C)C(CC(=O)NCc1ccco1)c1ccco1 (stereo not given),inactive
21,CC(=O)c1ccc(NC(=O)c2noc3c2CCC3)cc1,inactive
22,OCc1ccc(O)c2ncccc12,inactive
